# Literature values in patent publication US20250325531A1, “TREATMENT OF SYSTOLIC DYSFUNCTION” (MyoKardia, Inc., priority 2024, published 2025).
# Test system: healthy volunteers / HFrEF
# Conditions: high doses; correlated with increase in SET; cited from earlier work
smiles,measurement,value
COC(=O)N1CCN(Cc2cccc(NC(=O)Nc3ccc(C)nc3)c2F)CC1 [omecamtiv mecarbil],ischemia in healthy volunteers,resulted in ischemia
